Like-named read-outs stand apart in the source and are kept apart here.
Key:
MCF7 cells = assay: cells; format: cell-based; conditions: for IC50: read-out: IC50 - drug concentration which causes 50% cell growth inhibition
Source text: (§1) In Vitro Cytotoxicity Studies.

HL60 cells = assay: cells; format: cell-based; conditions: for IC50: read-out: IC50 - drug concentration which causes 50% cell growth inhibition
Source text: as §1

[1] = test system: HCT116, HT29, A549 and MelSK2 tumor cell lines; assay: MTT cell proliferation assay at 100 nM on four tumor cell lines (FIG. 2); format: cell-based; conditions: 96 hours; for cytotoxic activity against the three adenocarcinomas: HCT116, HT29, A549
Description: (§2) Cancer Cell Lines. Human colon carcinoma HCT116 and HT29, human melanoma MELSK2, human lung cancer A549, human leukemia HL60 and human breast cancer MCF7 cells were purchased from the American Type Culture Collection (Rockville, Md.). Human pancreatic tumor cell lines 6.03 and 10.05 were a gift from Dr. Elizabeth Jaffe, Johns Hopkins University.
In Vitro Cytotoxicity Studies. Cells were seeded in quadruplicate for each studied concentration in 96-well plates (100 μL of medium containing 2000-2500 cells per well) and were allowed to grow for 24 h (day 0). Stock solutions (2.5 mM) of test compounds were prepared freshly by dissolving their free base forms in distilled water-DMSO (50:50) mixture containing two equivalents of methanesulfonic acid and then diluted in distilled water to the concentration of 500 μM. These solutions were used to prepare 2 μM working solution and its 10-fold serial dilutions in appropriate media. 100 μL of drug containing medium or vehicle (control) was added to each well on day 1. The cytotoxicity was determined using two different methods: the MTT-based, CellTiter96™ Non-Radioactive Cell Proliferation Assay (Promega Inc., Madison, Wis.) according to instructions provided by the manufacturer, and/or the sulforhodamine B (SRB) method (Skehan et al., J. Natl. Cancer Inst. 82:1107-1112 (1990)). At the time at which drugs were added assays were performed on extra reference plates to determine the cell population density at time 0 (T0). After 96 h incubation at 37 ° C. in a humidified atmosphere containing 5% CO2, the assays were performed on test (T) and control (C) plates. The absorbance of the wells was determined by a Microplate Reader at […]. Cellular responses were calculated from the data as described previously: 100×[(T−T0)/(C−T0)] for T>T0 and 100×[(T−T0)/T0] for T<T0. […]
At the end of the test period the wells are treated with the MTT dye solution and incubated for 4 hours. […] This precipitate is solubilized, and the absorption at 570 nm is read in an ELISA reader.

MELSK2 cells = assay: cells; conditions: for IC50: read-out: IC50 - drug concentration which causes 50% cell growth inhibition
Description: as §2
(§3) In Vitro Cytotoxicity Studies. Cells were seeded in quadruplicate for each studied concentration in 96-well plates (100 μL of medium containing 2000-2500 cells per well) and were allowed to grow for 24 h (day 0). Stock solutions (2.5 mM) of test compounds were prepared freshly by dissolving their free base forms in distilled water-DMSO (50:50) mixture containing two equivalents of methanesulfonic acid and then diluted in distilled water to the concentration of 500 μM. These solutions were used to prepare 2 μM working solution and its 10-fold serial dilutions in appropriate media. 100 μL of drug containing medium or vehicle (control) was added to each well on day 1. The cytotoxicity was determined using two different methods: the MTT-based, CellTiter96™ Non-Radioactive Cell Proliferation Assay (Promega Inc., Madison, Wis.) according to instructions provided by the manufacturer, and/or the sulforhodamine B (SRB) method (Skehan et al., J. Natl. Cancer Inst. 82:1107-1112 (1990)). At the time at which drugs were added assays were performed on extra reference plates to determine the cell population density at time 0 (T0). After 96 h incubation at 37 ° C. in a humidified atmosphere containing 5% CO2, the assays were performed on test (T) and control (C) plates. The absorbance of the wells was determined by a Microplate Reader at […]. Cellular responses were calculated from the data as described previously: 100×[(T−T0)/(C−T0)] for T>T0 and 100×[(T−T0)/T0] for T<T0. (Monks et al., J. Natl. Cancer Inst. 83:757-766 (1991)).
(§4) At the end of the test period the wells are treated with the MTT dye solution and incubated for 4 hours. Cells which are alive convert the yellow tetrazolium dye into the blue, insoluble formazan product. This precipitate is solubilized, and the absorption at 570 nm is read in an ELISA reader.

HT29 cells = assay: cells; conditions: for IC50: read-out: IC50 - drug concentration which causes 50% cell growth inhibition
Description: as §2, §3, §4

A549 cells = assay: cells; conditions: for IC50: read-out: IC50 - drug concentration which causes 50% cell growth inhibition
Description: as §2, §3, §4

HCT116 cells = assay: cells; conditions: for growth inhibition of HCT116 at 1 nM: MTT dose-response; for IC50: read-out: IC50 - drug concentration which causes 50% cell growth inhibition
Description: as §2, §3, §4

[2] = test system: 6.03 pancreatic cancer cells; assay: Flow cytometry (FACS) cell cycle analysis, 6.03; format: cell-based, human; conditions: 6.03 cells
Description: (§5) Flow Cytometry Analysis. A suspension of 0.5×10^6 cells in 8 ml of medium were placed in 25 cm^2 T flask and allowed to attach for 24 h. The cells were then exposed for 6 h to 100 nM of drug . After removal of drug the cells were washed with PBS. Fresh medium (8 ml) was added and incubation at 37° C. in 5% CO2 in complete humidity was continued for an additional five days. At appropriate intervals, treated and control cells were released from flasks by incubation with trypsin (0.05 mg/ml)/EDTA (0.02 mg/ml) for 5 min at 37° C., collected in ice-cold PBS, combined with the removed medium that might contain floating cells, and centrifuged at 4° C. Cell pellets were re-suspended in PBS containing 1% fetal bovine serum. The cells were fixed and stained for fluorescence-activated cell sorting according to standard procedures (Crissman et al., Cytometry 3:84-90(1992)). Fluorescence histograms were obtained on a Coulter EPICS753 Cell Sorter using an argon laser and mean peaks were analyzed.
(§6) Similar cell cycle experiments were carried out on the 10.05 pancreatic cancer line.

[3] = test system: pancreatic cell line 10.05; assay: SRB-based assay, pancreatic cell line 10.05 (FIG. 5); set-up: species or system human; conditions: 120 hrs exposure
Source text: as §1
(§7) The compound of Example 2 is also potently cytotoxic against extremely refractory pancreatic cancer cell lines. FIG. 5 presents the results of an SRB-based assay on the toxicity of Example 2 against the four cell lines mentioned above, and against two pancreatic cell lines, 6.03 and 10.05 (obtained from Dr. Elizabeth Jaffe, Johns Hopkins University, Baltimore Md.). […] were exposed to the agent for 120 hrs. It is clear that both of these lines are sensitive to the compound.

[4] = test system: 10.05 pancreatic cancer cells; assay: Morphological examination of treated cells; format: cell-based, human; conditions: 10.05 cells, treated vs untreated
Source text: The FACS analysis evidence of apoptosis was substantiated by morphological examination of the treated 10.05 pancreatic cancer cells. […] Similar results were obtained with the 6.03 cells.

[5] = test system: NCI 60 human tumor cell line panel; assay: NCI 60 human tumor cell line panel; format: cell-based; conditions: NCI 60 panel
[6] = test system: 10.05 pancreatic cancer line; assay: Flow cytometry (FACS) cell cycle analysis, 10.05; format: cell-based, human; conditions: 10.05 cells
Description: as §5, §6

[7] = test system: HCT116, HT29, A549 and Mel.SK2 tumor cell lines; assay: Sulforhodamine B (SRB) assay on the four tumor types (FIG. 4); format: cell-based; conditions: varying concentrations
Source text: as §1

[8] = test system: pancreatic cell line 6.03; assay: SRB-based assay, pancreatic cell line 6.03 (FIG. 5); set-up: species or system human; conditions: 120 hrs exposure
Source text: as §1, §7

[9] = test system: HCT 116 colon cancer cell; assay: Flow cytometry (FACS) cell cycle analysis, HCT116; format: cell-based, human; conditions: 100 nM for 6 hrs, then culture
Description: as §5
In order to determine the mode of cell death induced by the compounds of the invention, the effect of the compound of Example 2 on the cell cycle was studied, utilizing Fluorescence Activated Cell Sorting SACS) analysis. HCT 116 colon cancer cell were treated with the compound of Example 2 for 6 hrs at a concentration of 100 nM, and then allowed to grow in culture for varying times.

[10] = MCF7, 96 h incubation, read-out: LC50 - drug concentration which causes 50% cell death
[11] = HL60, 96 h incubation, read-out: LC50 - drug concentration which causes 50% cell death
[12] = read-out: LC50 - drug concentration which causes 50% cell death, MELSK2, 96 h incubation
[13] = read-out: LC50 - drug concentration which causes 50% cell death, HT29, 96 h incubation
[14] = read-out: LC50 - drug concentration which causes 50% cell death, A549, 96 h incubation
[15] = read-out: LC50 - drug concentration which causes 50% cell death, HCT116, 96 h incubation

Row | Structure (SMILES) | CC50 (MCF7 cells) [nM] | IC50 (MCF7 cells; MCF7, 96 h incubation) [nM] | CC50 (HL60 cells) [nM] | IC50 (HL60 cells; HL60, 96 h incubation) [nM] | cytotoxic activity against the three adenocarcinomas [1] | CC50 (MELSK2 cells) [nM] | IC50 (MELSK2 cells; MELSK2, 96 h incubation) [nM] | CC50 (HT29 cells) [nM] | IC50 (HT29 cells; HT29, 96 h incubation) [nM] | CC50 (A549 cells) [nM] | IC50 (A549 cells; A549, 96 h incubation) [nM] | CC50 (HCT116 cells) [nM] | growth inhibition of HCT116 at 1 nM (HCT116 cells; FIG. 3) | IC50 (HCT116 cells; HCT116, 96 h incubation) [nM] | CC50 (MCF7 cells; [10]) [nM] | CC50 (HL60 cells; [11]) [nM] | CC50 (MELSK2 cells; [12]) [nM] | CC50 (HT29 cells; [13]) [nM] | CC50 (A549 cells; [14]) [nM] | CC50 (HCT116 cells; [15]) [nM] | other results
1 | O=C1c2cccc3cc([N+](=O)[O-])cc(c23)C(=O)N1CCCN1CCN(CCCNc2ccc3ncn4c5ccc(F)cc5c(=O)c2c34)CC1 [Example 4] | > 1000 | 3.5 | 33 | 3.5 | outstanding cytotoxic activity | 70 | 4 | 35 | 1.5 | 35 | 0.6 | 35 | almost complete growth inhibition | 0.5 | – | – | – | – | – | – | –
2 | O=C1c2cccc3cc([N+](=O)[O-])cc(c23)C(=O)N1CCCN1CCN(CCCNc2ccc3ncn4c5ccccc5c(=O)c2c34)CC1 [Example 2] | > 1000 | 3.2 | 33 | 3.5 | outstanding cytotoxic activity | 60 | 4 | 65 | 0.9 | 35 | 0.6 | 32 | almost complete growth inhibition | 0.5 | – | – | – | – | – | – | apoptosis by cell cycle analysis [2]: strong evidence of apoptosis; effect on line 10.05 at 1 μM [3]: substantial cell death; morphology of treated cells [4]: evidence of chromatin fragmentation; median activity, growth inhibition of all of the tumor cell lines [5]: nanomolar range; apoptosis (growth of the sub-G1 fraction) at 144 hrs [6]: substantial apoptosis; cytotoxic activity in the SRB assay compared with MTT [7]: essentially mirror the results obtained with the MTT end-point; effect on line 6.03 at 100 nM [8]: growth arrested; cell cycle effect at 24 hrs ([9]; 24 hrs): growth arrested at G2-M; sub-G1 fraction (apoptotic death) at 96 hrs ([9]; 96 hrs): dominated the distribution
3 | Nc1cc2c3c(cccc3c1)C(=O)N(CCCN1CCN(CCCNc3ccc4ncn5c6ccccc6c(=O)c3c45)CC1)C2=O [Example 6] | – | 32 | – | 5 | – | – | 15 | – | 8 | – | 2.5 | – | – | 2.2 | > 1000 | 450 | 750 | 750 | 100 | 80 | –
4 | CN(C)CCN1C(=O)c2cccc3cc([N+](=O)[O-])cc(c23)C1=O [Mitonafide, mitonafide, reference compound] | – | – | – | – | – | – | – | – | – | – | – | – | – | – | – | – | – | – | – | – | IC50 (MCF7 cells; Homo sapiens, MCF7, 96 h): 245 nM; CC50 (MCF7 cells; Homo sapiens, MCF7, 96 h, read-out: LC50 - drug concentration which causes 50% cell death): > 1000 nM; IC50 (HL60 cells; Homo sapiens, HL-60, 96 h): 45 nM; CC50 (HL60 cells; Homo sapiens, HL-60, 96 h, read-out: LC50 - drug concentration which causes 50% cell death): 400 nM; activity at 100 nM drug concentration ([1]; HCT116, HT29, A549, MelSK2): not very active; IC50 (MELSK2 cells; Homo sapiens, 96 h): 150 nM; CC50 (MELSK2 cells; Homo sapiens, 96 h, read-out: LC50 - drug concentration which causes 50% cell death): 700 nM; IC50 (HT29 cells; Homo sapiens, HT-29, 96 h): 300 nM; IC50 (A549 cells; Homo sapiens, A549, 96 h): 65 nM; CC50 (A549 cells; Homo sapiens, A549, 96 h, read-out: LC50 - drug concentration which causes 50% cell death): 800 nM; concentration at which almost complete growth inhibition is reached (HCT116 cells; HCT116, MTT dose-response, FIG. 3): 1 µM; IC50 (HCT116 cells; Homo sapiens, HCT-116, 96 h): 250 nM; CC50 (HCT116 cells; Homo sapiens, HCT-116, 96 h, read-out: LC50 - drug concentration which causes 50% cell death): > 1000 nM
5 | CN(CCCNc1ccc2ncn3c4ccccc4c(=O)c1c23)CCCN1C(=O)c2cccc3cc([N+](=O)[O-])cc(c23)C1=O [Example 1] | – | 50 | – | 120 | – | – | 150 | – | 25 | – | 25 | – | – | 8 | > 1000 | 500 | > 1000 | 400 | 500 | 220 | –
6 | Nc1cc2c3c(cccc3c1)C(=O)N(CCCN1CCN(CCCNc3ccc4ncn5c6ccc(F)cc6c(=O)c3c45)CC1)C2=O [Example 8] | > 1000 | 46 | 450 | 4 | – | > 1000 | 20 | > 1000 | 3.5 | 150 | 2 | 230 | – | 1.8 | – | – | – | – | – | – | –
